Measurements reported in patent US20260285875A1, “INHIBITORS OF PARG” (858 Therapeutics, Inc., priority 2023, published 2026).

target: T1, cellular PARG (Homo sapiens, UniProt Q86W56); test: Nuclear PAR accumulation assay (immunofluorescence high-content imaging, MMS-treated HeLa cells); assay type: cell-based; conditions: 1 hour compound then MMS 50 μg/mL for an additional hour
T1 construct: endogenous in cells; host or cells: HeLa
Summary of the method: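 HeLa cells pretreated with compound for 1 h at 37° C, then given 50 μg/mL MMS for another hour. After methanol fixation, PAR was immunostained with DAPI nuclear counterstain; per-nucleus intensity and percent PAR-positive cells were imaged at 20× (≥1,000 cells/well). IC50 from four-parameter logistic fit.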

T1 sequence (Q86W56 whole entry): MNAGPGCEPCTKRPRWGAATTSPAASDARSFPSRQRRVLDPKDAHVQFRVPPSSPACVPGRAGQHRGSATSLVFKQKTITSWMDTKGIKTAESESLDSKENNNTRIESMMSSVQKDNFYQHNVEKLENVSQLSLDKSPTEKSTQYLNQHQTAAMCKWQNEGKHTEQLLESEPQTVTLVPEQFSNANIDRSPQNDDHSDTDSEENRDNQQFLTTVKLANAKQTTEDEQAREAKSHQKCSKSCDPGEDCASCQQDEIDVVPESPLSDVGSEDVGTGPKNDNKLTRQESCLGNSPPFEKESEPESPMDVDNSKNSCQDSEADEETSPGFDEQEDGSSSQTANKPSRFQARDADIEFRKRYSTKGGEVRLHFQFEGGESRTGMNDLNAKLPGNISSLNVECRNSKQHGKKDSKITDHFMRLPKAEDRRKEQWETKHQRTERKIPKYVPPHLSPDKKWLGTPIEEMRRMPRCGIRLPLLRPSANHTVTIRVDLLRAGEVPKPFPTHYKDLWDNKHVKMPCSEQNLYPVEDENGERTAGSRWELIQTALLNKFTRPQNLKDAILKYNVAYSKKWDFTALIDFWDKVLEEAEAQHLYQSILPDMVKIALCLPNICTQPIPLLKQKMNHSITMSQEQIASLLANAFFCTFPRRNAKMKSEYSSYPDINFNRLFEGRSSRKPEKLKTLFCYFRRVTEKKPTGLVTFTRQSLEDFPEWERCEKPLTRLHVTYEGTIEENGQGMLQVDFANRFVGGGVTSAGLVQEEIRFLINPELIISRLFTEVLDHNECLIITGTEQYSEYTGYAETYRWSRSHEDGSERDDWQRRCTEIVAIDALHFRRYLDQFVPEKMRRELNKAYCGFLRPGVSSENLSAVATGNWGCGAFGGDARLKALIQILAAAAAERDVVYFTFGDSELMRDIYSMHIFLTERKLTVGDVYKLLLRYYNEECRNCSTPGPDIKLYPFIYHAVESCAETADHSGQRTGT

Row | SMILES | IC50 [nM]
1 | Cc1ncc([C@@H]2CN=C3N(Cc4cnn(C)c4)C(=O)c4cc(S(=O)(=O)NC5(C)CC5)ccc4N32)s1 [Example 121, (S)-4-((1-methyl-1H-pyrazol-4-yl)methyl)-N-(1-methylcyclopropyl)-1-(2-methylthiazol-5-yl)-5-oxo-1,2,4,5-tetrahydroimidazo[1,2-a]quinazoline-7-sulfonamide] | < 100
2 | CCC[C@@H]1CN=C2N(Cc3cnn(C)c3)C(=O)c3cc(S(=O)(=O)NC4(C)CC4)ccc3N21 [Example 122, (R)-4-((1-methyl-1H-pyrazol-4-yl)methyl)-N-(1-methylcyclopropyl)-5-oxo-1-propyl-1,2,4,5-tetrahydroimidazo[1,2-a]quinazoline-7-sulfonamide] | < 100
3 | C[C@@H]1CN=C2N(C)C(=O)c3cc(S(=O)(=O)NC4(C)CC4)cc(N4CCC5(CC4)COC5)c3N21 [Example 123, (R)-1,4-dimethyl-N-(1-methylcyclopropyl)-5-oxo-9-(2-oxa-7-azaspiro[3.5]nonan-7-yl)-1,2,4,5-tetrahydroimidazo[1,2-a]quinazoline-7-sulfonamide] | < 100
4 | Cn1cc(CN2C(=O)c3cc(S(=O)(=O)NC4(C)CC4)ccc3N3C2=NC[C@H]3C#CC2(N)CC2)cn1 [Example 124, (R)-1-((1-aminocyclopropyl)ethynyl)-4-((1-methyl-1H-pyrazol-4-yl)methyl)-N-(1-methylcyclopropyl)-5-oxo-1,2,4,5-tetrahydroimidazo[1,2-a]quinazoline-7-sulfonamide] | < 100
5 | COC1(C(=O)N2CCN(c3cc(S(=O)(=O)NC4(C)CC4)cc4c3N3C(=NC[C@H]3C)N(C)C4=O)CC2)CC1 [Example 125, (R)-9-(4-(1-methoxycyclopropane-1-carbonyl)piperazin-1-yl)-1,4-dimethyl-N-(1-methylcyclopropyl)-5-oxo-1,2,4,5-tetrahydroimidazo[1,2-a]quinazoline-7-sulfonamide] | < 100
6 | C[C@@H]1CN(c2cc(S(=O)(=O)NC3(C)CC3)cc3c2N2C(=NC[C@H]2C)N(C)C3=O)C[C@@H](C)O1 [Example 126, (R)-9-((2R,6R)-2,6-dimethylmorpholino)-1,4-dimethyl-N-(1-methylcyclopropyl)-5-oxo-1,2,4,5-tetrahydroimidazo[1,2-a]quinazoline-7-sulfonamide] | 100 to 1000
7 | CNC1(C#C[C@@H]2CN=C3N(Cc4cnn(C)c4)C(=O)c4cc(S(=O)(=O)NC5(C)CC5)ccc4N32)CC1 [Example 127, (R)-4-((1-methyl-1H-pyrazol-4-yl)methyl)-1-((1-(methylamino)cyclopropyl)ethynyl)-N-(1-methylcyclopropyl)-5-oxo-1,2,4,5-tetrahydroimidazo[1,2-a]quinazoline-7-sulfonamide] | < 100
8 | Cn1cc(CN2C(=O)c3cc(S(=O)(=O)NC4(C)CC4)ccc3N3C2=NC[C@H]3CCC#N)cn1 [Example 128, (R)-1-(2-cyanoethyl)-4-((1-methyl-1H-pyrazol-4-yl)methyl)-N-(1-methylcyclopropyl)-5-oxo-1,2,4,5-tetrahydroimidazo[1,2-a]quinazoline-7-sulfonamide] | 100 to 1000
9 | CN1C(=O)c2cc(S(=O)(=O)NC3(C)CC3)ccc2N2C1=NC[C@H]2C#CC1(N(C)C)CC1 [Example 129, (R)-1-((1-(dimethylamino)cyclopropyl)ethynyl)-4-methyl-N-(1-methylcyclopropyl)-5-oxo-1,2,4,5-tetrahydroimidazo[1,2-a]quinazoline-7-sulfonamide] | < 100
10 | CN1C(=O)c2cc(S(=O)(=O)NC3(C)CC3)ccc2N2C1=NC[C@H]2C#Cc1cnn(C)c1 [Example 130, (R)-4-methyl-1-((1-methyl-1H-pyrazol-4-yl)ethynyl)-N-(1-methylcyclopropyl)-5-oxo-1,2,4,5-tetrahydroimidazo[1,2-a]quinazoline-7-sulfonamide] | < 100
11 | [2H]C([2H])(c1cnn(C)c1)N1C(=O)c2cc(S(=O)(=O)NC3(C)CC3)ccc2N2C1=NCC2CNc1ccccn1 (stereo not shown) [Example 131, 4-((1-methyl-1H-pyrazol-4-yl)methyl-d2)-N-(1-methylcyclopropyl)-5-oxo-1-((pyridin-2-ylamino)methyl)-1,2,4,5-tetrahydroimidazo[1,2-a]quinazoline-7-sulfonamide] | 1000 to 10000
12 | Cn1cc(CN2C(=O)c3cc(S(=O)(=O)NC4(C)CC4)ccc3N3C2=NCC3C#Cc2ccncn2)cn1 (stereo not shown) [Example 132, 4-((1-methyl-1H-pyrazol-4-yl)methyl)-N-(1-methylcyclopropyl)-5-oxo-1-(pyrimidin-4-ylethynyl)-1,2,4,5-tetrahydroimidazo[1,2-a]quinazoline-7-sulfonamide] | 100 to 1000
13 | CN1C(=O)c2cc(S(=O)(=O)NC3(C)CC3)ccc2N2C1=NCC2C#Cc1ccc2cnn(C)c2c1 (stereo not shown) [Example 133, 4-methyl-1-((1-methyl-1H-indazol-6-yl)ethynyl)-N-(1-methylcyclopropyl)-5-oxo-1,2,4,5-tetrahydroimidazo[1,2-a]quinazoline-7-sulfonamide] | < 100
14 | CN1C(=O)c2cc(S(=O)(=O)NC3(C)CC3)ccc2N2C1=NCC2C#Cc1cncc(C#N)c1 (stereo not shown) [Example 134, 1-((5-cyanopyridin-3-yl)ethynyl)-4-methyl-N-(1-methylcyclopropyl)-5-oxo-1,2,4,5-tetrahydroimidazo[1,2-a]quinazoline-7-sulfonamide] | < 100
15 | Cn1cc(CN2C(=O)c3cc(S(=O)(=O)NC4(C)CC4)ccc3N3C2=NCC3COc2ccc(C#N)cc2)cn1 (stereo not shown) [Example 135, 1-((4-cyanophenoxy)methyl)-4-((1-methyl-1H-pyrazol-4-yl)methyl)-N-(1-methylcyclopropyl)-5-oxo-1,2,4,5-tetrahydroimidazo[1,2-a]quinazoline-7-sulfonamide] | 100 to 1000
16 | Cn1cc(CN2C(=O)c3cc(S(=O)(=O)NC4(C)CC4)ccc3N3C2=NCC3COc2cccc(C#N)c2)cn1 (stereo not shown) [Example 136, 1-((3-cyanophenoxy)methyl)-4-((1-methyl-1H-pyrazol-4-yl)methyl)-N-(1-methylcyclopropyl)-5-oxo-1,2,4,5-tetrahydroimidazo[1,2-a]quinazoline-7-sulfonamide] | < 100
17 | Cn1cc(CN2C(=O)c3cc(S(=O)(=O)NC4(C)CC4)ccc3N3C2=NCC3COc2ccccc2C#N)cn1 (stereo not shown) [Example 137, 1-((2-cyanophenoxy)methyl)-4-((1-methyl-1H-pyrazol-4-yl)methyl)-N-(1-methylcyclopropyl)-5-oxo-1,2,4,5-tetrahydroimidazo[1,2-a]quinazoline-7-sulfonamide] | 100 to 1000
18 | Cn1cc(CN2C(=O)c3cc(S(=O)(=O)NC4(C)CC4)ccc3N3C2=NCC3COc2cccc(Cl)c2)cn1 (stereo not shown) [Example 138, 1-((3-chlorophenoxy)methyl)-4-((1-methyl-1H-pyrazol-4-yl)methyl)-N-(1-methylcyclopropyl)-5-oxo-1,2,4,5-tetrahydroimidazo[1,2-a]quinazoline-7-sulfonamide] | 100 to 1000
19 | C[C@@H]1CN=C2N(CC(F)F)C(=O)c3cc(S(=O)(=O)NC4(C)CC4)ccc3N21 [Example 139, (R)-4-(2,2-difluoroethyl)-1-methyl-N-(1-methylcyclopropyl)-5-oxo-1,2,4,5-tetrahydroimidazo[1,2-a]quinazoline-7-sulfonamide] | 100 to 1000
